Measured values from US9758485B2, “Compounds for controlling arthropods” (priority 2013, dated 2017).
Like-named read-outs stand apart in the source and are kept apart here.

Experiments:
[1] = logP determination by HPLC on a reversed-phase column (C18), EEC Directive 79/831 Annex V.A8; type: physicochemical; settings: for log P: HPLC-MS, reversed-phase column (C18); for logP^a): HPLC-MS method a), Table I-T3
Phaedon cochleariae = Phaedon cochleariae - spray test; type: in vivo; settings: application rate 100 g/ha, larvae on Chinese cabbage leaf discs, after 7 days; for pest or weed control at 100 g/ha: Phaedon cochleariae, foliar, 168 h, read-out: efficacy
Experimental: Phaedon cochleariae—Spray Test
(§1) Solvent: 78.0 parts by weight of acetone and 1.5 parts by weight of dimethylformamide
(§2) Emulsifier: alkylaryl polyglycol ether
(§3) To produce an appropriate active ingredient formulation, 1 part by weight of active ingredient is dissolved using the specified parts by weight of solvent and made up with water containing an emulsifier concentration of 1000 ppm until the desired concentration is attained. To produce further test concentrations, the preparation is diluted with emulsifier-containing water.
Discs of Chinese cabbage leaves (Brassica pekinensis) are sprayed with an active ingredient formulation of the desired concentration and, after drying, populated with larvae of the mustard beetle (Phaedon cochleariae).
After 7 days, efficacy in % is determined. 100% means that all the beetle larvae have been killed; 0% means that no beetle larvae have been killed.

Ctenocephalides felis [2] = assay: Ctenocephalides felis - in vitro contact tests with adult cat fleas; type: in vivo; settings: application rate 5 μg/cm^2 (=500 g/ha), after 48 h (dead or moribund)
How it was run: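 Efficacy, as share of dead or moribund adult Ctenocephalides felis, read 48 h after placing 5-10 fleas in tubes coated by acetone solution (5 μg/cm^2 at 900 ppm). Incubation horizontal at room temperature, ambient humidity; immobile or uncoordinated fleas scored.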

Amblyomma hebraeum = Amblyomma hebraeum test (tick nymphs, immersion); type: in vivo; settings: application rate 100 ppm; tick nymphs immersed for one minute; kill after 42 days
Experimental: Solvent: dimethyl sulphoxide
To produce an appropriate active ingredient formulation, 10 mg of active ingredient are mixed with 0.5 ml of dimethyl sulphoxide, and the concentrate is diluted with water to the desired concentration.
Tick nymphs (Amblyomma hebraeum) are placed into perforated plastic beakers and immersed in the desired concentration for one minute. The ticks are transferred on filter paper into a Petri dish and stored in a climate-controlled cabinet.
After 42 days, the kill in % is determined. 100% means that all of the ticks have been killed; 0% means that none of the ticks have been killed.

Boophilus microplus = Boophilus microplus - injection test; type: in vivo; settings: application rate 20 μg/animal; injected into engorged adult female ticks; laying of fertile eggs, after 7 days
How it was run: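 Scoring was by fertile egg laying 7 days after injection, holding doubtful eggs until larvae hatched at about 42 days; 100% = no fertile eggs, 0% = all eggs fertile. Groups of 5 engorged adult female cattle ticks were each injected abdominally with 1 μl of compound in DMSO.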

[3] = tested on: Boophilus microplus Parkhurst strain, SP-resistant; assay: Boophilus microplus - dip test; type: in vivo; settings: application rate 100 ppm; dip of engorged adult female ticks; laying of fertile eggs, after 7 days
How it was run: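 Efficacy reflects suppression of fertile egg laying: 0% means all eggs fertile, 100% none, read at 7 days, doubtful eggs kept ~42 days for larval hatch. Treatment was a complete dip of 8–10 engorged adult female ticks (SP-resistant Parkhurst strain) in a water dilution of a DMSO stock.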

Ctenocephalides felis [4] = assay: Ctenocephalides felis - oral test; type: in vivo; settings: application rate 100 ppm in citrated cattle blood, adult fleas, kill after 2 days
How it was run: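 Fleas ingest treated citrated cattle blood (DMSO formulation) through parafilm; percent killed assessed after two days.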

Lucilia cuprina = Lucilia cuprina test; type: in vivo; settings: application rate 100 ppm, L1 larvae in minced horsemeat, kill after 2 days
How it was run: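 Mortality (%) of first-instar blowfly larvae, about 20 per vessel, recorded 2 days after exposure to compound-treated minced horsemeat. Compound dissolved in dimethyl sulphoxide, then water-diluted to the desired concentration.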

Musca domestica = Musca domestica test; type: in vivo; settings: application rate 100 ppm; adult houseflies; kill after 2 days
How it was run: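 Water-diluted DMSO stock of compound, mixed onto a sugar-treated sponge, served as the sole exposure route for ten adult houseflies. Kill percentage scored at 2 days.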

Rhipicephalus sanguineus = Rhipicephalus sanguineus - in vitro contact tests with adult brown dog ticks; type: in vivo
How it was run: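 Test compound was dissolved in acetone p.a. (9 mg in 1 ml, then diluted), and 250 μl were spread evenly over the inner surface of 25 ml test tubes on an orbital shaker at 30 rpm for 2 h. Once the solvent evaporated, 5-10 adult Rhipicephalus sanguineus ticks were sealed in, kept dark at room temperature, and after 48 h placed on a 45-50° C. hotplate to score dead or moribund ticks.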

Spodoptera frugiperda = Spodoptera frugiperda - spray test; type: in vivo; settings: foliar, 168 h, application rate 100 g/ha, caterpillars on maize leaf discs, after 7 days, read-out: efficacy
Experimental: Spodoptera frugiperda—Spray Test
as §1, §2, §3
Leaf discs of maize (Zea mays) are sprayed with an active ingredient formulation of the desired concentration and, after drying, populated with caterpillars of the armyworm (Spodoptera frugiperda).
After 7 days, efficacy in % is determined. 100% means that all the caterpillars have been killed; 0% means that no caterpillars have been killed.

[5] = reversed-phase HPLC column (C18), HPLC, reversed-phase C18, acetonitrile/water with formic acid, 55° C., read-out: logP
[6] = reversed-phase HPLC column (C18), HPLC-MS method a); read-out: logP^a)
[7] = application rate 5 μg/cm^2, after 48 h (dead or moribund)
[8] = application rate 1 μg/cm^2, after 48 h (dead or moribund)

Row | chromatographic logP [1, 5] | chromatographic logP [1, 6] | chromatographic logP ([1]; reversed-phase HPLC column (C18), HPLC-MS method a), Table I-T3; read-out: logP^a)) | SMILES | pest or weed control at 100 g/ha (Phaedon cochleariae) [%] | log P [1] | efficacy (Ctenocephalides felis [2]) [%] | efficacy (Amblyomma hebraeum) [%] | efficacy (Boophilus microplus) [%] | efficacy [3] [%] | efficacy (Ctenocephalides felis [4]) [%] | efficacy (Lucilia cuprina) [%] | efficacy (Musca domestica) [%] | efficacy (Phaedon cochleariae) [%] | logP^a) [1] | efficacy (Rhipicephalus sanguineus; [7]) [%] | efficacy (Rhipicephalus sanguineus; [8]) [%] | pest or weed control at 100 ppm (Ctenocephalides felis [4]; Ctenocephalides felis, po, 48 h, read-out: efficacy) [%] | pest or weed control at 100 ppm (Lucilia cuprina; Lucilia cuprina, 48 h, read-out: efficacy) [%] | pest or weed control at 100 g/ha (Spodoptera frugiperda) [%] | efficacy (Rhipicephalus sanguineus; application rate 0.2 μg/cm^2, after 48 h (dead or moribund)) [%]
1 | 4.9 | 4.9 | – | Cc1cc(C(F)(C(F)(F)F)C(F)(F)F)cc(C)c1-c1ccn(-c2ccc(Cl)c(C(=O)NC3CC3)c2)n1 [I-T2-1, 2-chloro-N-cyclopropyl-5-[3-[2,6-dimethyl-4-[1,2,2,2-tetrafluoro-1-(trifluoromethyl)ethyl]phenyl]pyrazol-1-yl]benzamide] | 100 | – | – | – | – | – | – | – | – | – | – | – | – | – | – | – | –
2 | – | – | – | Cc1ncc(-c2cnn(-c3c(Cl)cc(C(F)(C(F)(F)F)C(F)(F)F)cc3C(F)(F)F)c2)cc1C(=O)NC1(C#N)CC1 [I-T3-125] | – | 3.8 | 100 | 100 | 100 | 100 | 100 | 100 | 100 | 100 | – | – | – | – | – | – | –
3 | – | – | – | Cc1cc(C(F)(C(F)(F)F)C(F)(F)F)cc(C(F)(F)F)c1-n1cc(-c2ccc(Cl)c(C(=O)NC3CC3)c2)cn1 [I-T3-54] | – | – | 100 | 100 | 100 | 100 | 100 | 100 | 100 | – | 4.4 | 100 | – | – | – | – | –
4 | – | – | – | O=C(NC1CC1)c1cc(-c2cnn(-c3c(Cl)cc(C(F)(F)F)cc3Cl)c2)cnc1Cl [I-T3-98] | – | 3.1 | 100 | 100 | 100 | 100 | 100 | 100 | 90 | – | – | 100 | – | – | – | – | –
5 | – | – | – | N#CC1(NC(=O)c2cc(-c3cnn(-c4c(Br)cc(C(F)(C(F)(F)F)C(F)(F)F)cc4C(F)(F)F)c3)ccc2Cl)CC1 [I-T3-155] | – | 4.4 | 100 | 100 | 100 | 100 | 100 | 100 | 100 | – | – | 100 | – | – | – | – | –
6 | – | – | – | Cc1cc(C(F)(C(F)(F)F)C(F)(F)F)cc(C)c1-n1cc(-c2cnc(Cl)c(C(=O)NC3(C#N)CC3)c2)cn1 [I-T3-21] | – | – | 100 | 100 | 100 | 100 | 100 | 100 | 100 | – | 3.7 | 100 | – | – | – | – | –
7 | – | – | – | Cc1cc(C(F)(C(F)(F)F)C(F)(F)F)cc(C)c1-n1cc(-c2cnc(C)c(C(=O)NC3CC3)c2)cn1 [I-T3-96] | – | 3.3 | 100 | 100 | 100 | 100 | 100 | 100 | 100 | – | – | 100 | – | – | – | – | –
8 | – | – | – | O=C(NC1CC1)c1cc(-c2cnn(-c3c(Cl)cc(C(F)(C(F)(F)F)C(F)(F)F)cc3C(F)(F)F)c2)cnc1Cl [I-T3-112] | – | 4.0 | 100 | 100 | 100 | 100 | 100 | 100 | 100 | – | – | 100 | – | – | – | – | –
9 | – | – | – | CCc1cc(C(F)(F)C(F)(F)F)cc(C)c1-n1cc(-c2ccc(Cl)c(C(=O)NC3CC3)c2)cn1 [I-T3-81] | – | – | 100 | 100 | 100 | 100 | 100 | 100 | 90 | – | 4.3 | 100 | – | – | – | – | –
10 | – | – | – | Cc1ncc(-c2cnn(-c3c(Cl)cc(C(F)(C(F)(F)F)C(F)(F)F)cc3Cl)c2)cc1C(=O)NC1(C#N)CC1 [I-T3-92] | – | 3.4 | 100 | 100 | 100 | 100 | 100 | 100 | 100 | – | – | 80 | – | – | – | – | –
11 | – | – | – | N#CC1(NC(=O)c2cc(-c3cnn(-c4c(Cl)cc(C(F)(C(F)(F)F)C(F)(F)F)cc4C(F)(F)F)c3)cnc2Cl)CC1 [I-T3-114] | – | 4.0 | 100 | 100 | 100 | 100 | 100 | 100 | 100 | – | – | – | 100 | – | – | – | –
12 | – | – | – | Cc1cc(C(F)(C(F)(F)F)C(F)(F)F)cc(C(F)(F)F)c1-n1cc(-c2cnc(C)c(C(=O)N(C)C3(C#N)CC3)c2)cn1 [I-T3-123] | – | 3.9 | 100 | 80 | 100 | 100 | 100 | 100 | 100 | – | – | – | 80 | – | – | – | –
13 | – | – | – | CCc1cc(C(F)(C(F)(F)F)C(F)(F)F)cc(C)c1-n1cc(-c2cnc(Cl)c(C(=O)NC3CC3)c2)cn1 [I-T3-109] | – | 4.2 | 100 | 100 | 100 | 100 | 100 | 100 | 100 | – | – | 100 | – | – | – | – | –
14 | 3.2 | 3.2 | 3.2 | O=C(NC1CC1)c1cc(-c2cnn(-c3c(F)cc(C(F)(F)F)cc3F)c2)ccc1Cl [I-T3-48, 2-chloro-N-cyclopropyl-5-[1-[2,6-difluoro-4-(trifluoromethyl)phenyl]pyrazol-4-yl]benzamide] | 100 | – | – | – | – | – | – | – | – | – | – | – | – | 100 | 100 | 100 | –
15 | – | – | – | Cc1cc(C(F)(C(F)(F)F)C(F)(F)F)cc(C(F)(F)F)c1-n1cc(-c2cnc(C)c(C(=O)NC3CC3)c2)cn1 [I-T3-117] | – | 3.5 | 100 | 100 | 100 | 100 | 100 | 100 | 100 | – | – | 100 | – | – | – | – | –
16 | – | – | – | Cc1cc(C(F)(C(F)(F)F)C(F)(F)F)cc(Cl)c1-n1cc(-c2ccc(Cl)c(C(=O)NC3(C#N)CC3)c2)cn1 [I-T3-64] | – | – | 100 | 100 | 100 | 100 | 100 | 100 | 100 | – | 4.2 | – | – | – | – | – | 80
